The source of these data is ChEMBL document CHEMBL1201862, “PubChem BioAssay data set” (2004).

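Briefly, cells in 96-well plates were exposed to five compound concentrations for 48 h, and endpoints were estimated by linear interpolation. GI50 marks 50% less growth.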 The source made the active and inactive calls. Cut-off read from the data, not from the text of the source: active = GI50 up to about 1.1 µM and inactive = higher.

Among the test systems are ACHN; EKVX; HCT-15; MOLT-4; Malme-3M; NCI-H23; RPMI-8226; SF-268; SF-539; SK-MEL-2; SW-620; U-251; UACC-257; UACC-62; UO-31; Hs-578T; MCF7; PC-3; T47D.
Common to all, as to test: NCI anticancer screen, dose series, 48 h

As to `Cn1cc(C(=O)c2ccccc2)cc(C(=O)c2ccccc2)c1=O`, the GI50 in the assay on ACHN is > 100 µM (inactive); in the assay with EKVX, > 100 µM (inactive); in the assay on HCT-15, over 100 µM; in the assay with MOLT-4 it was > 100 µM (inactive); in the assay on Malme-3M it was > 100 µM (inactive); with NCI-H23, > 100 µM (inactive). Also, the GI50 in the assay with RPMI-8226, with SF-268, in the assay on SF-539, in the assay with SK-MEL-2, in the assay on SW-620 and in the assay with U-251 was > 100 µM (inactive) each time. Moreover, the GI50 in the assay on UACC-257, in the assay with UACC-62 and in the assay with UO-31 was > 100 µM (inactive) throughout.

Turning to `C=C(CCCCC)CN1CCCC1C(C)=O` (stereo not given), the GI50 in the assay on ACHN is 25.5 µM (inactive); with EKVX it was 35 µM (inactive); with HCT-15, 31.6 µM; with MOLT-4 it was 8.75 µM (inactive); in the assay with Malme-3M, 41.8 µM (inactive); in the assay with NCI-H23 it was 17.4 µM (inactive). Further, the GI50 was 13.1 µM (inactive) in the assay with RPMI-8226; 42.3 µM (inactive) in the assay with SF-268; 35.6 µM (inactive) with SF-539; 26.1 µM (inactive) with SK-MEL-2; > 57.9 µM (inactive) with SW-620; 30.6 µM (inactive) with U-251. In addition, the GI50 was 26.6 µM (inactive) in the assay with UACC-257, 25.4 µM (inactive) with UACC-62 and 31.4 µM (inactive) in the assay on UO-31.

Regarding `CCOC(=O)/C(=C/c1cccc(Cl)c1)N(CC)CC`, the GI50 is 35.5 µM (inactive) in the assay with ACHN; 55.7 µM (inactive) in the assay with EKVX; 38.7 µM in the assay with HCT-15; 87.7 µM (inactive) with MOLT-4; 57.3 µM (inactive) with Malme-3M; 27.7 µM (inactive) in the assay on NCI-H23. Moreover, the GI50 with RPMI-8226 is 36.7 µM (inactive); with SF-268, 52.7 µM (inactive); in the assay with SF-539 it was 73.5 µM (inactive); with SK-MEL-2, 29.6 µM (inactive); in the assay on SW-620 it was 59 µM (inactive); in the assay with U-251, 43.3 µM (inactive). The GI50 in the assay with UACC-257 is 55.8 µM (inactive); with UACC-62, 33.9 µM (inactive); with UO-31, 37.1 µM (inactive).

On to `COc1ccc(-n2cnn3c(=O)c4cn[nH]c4nc23)cc1`, for which the GI50 with ACHN, in the assay with EKVX, with Hs-578T, in the assay with MCF7, with MOLT-4 and in the assay with Malme-3M was > 10 µM (inactive) each time. For the same molecule, the GI50 in the assay on NCI-H23, with PC-3, with SF-268, in the assay with SF-539, with U-251 and in the assay with UACC-257 was > 10 µM (inactive) throughout. The GI50 in the assay with UO-31 was > 10 µM (inactive).

On to `COc1cccc(C2CC23C(=O)NC(=O)NC3=O)c1` (stereo not given), for which the GI50 in the assay on ACHN was > 100 µM (inactive); in the assay on EKVX it was > 100 µM (inactive); in the assay with HCT-15, over 100 µM; with MOLT-4, > 100 µM (inactive); in the assay on Malme-3M, > 100 µM (inactive); in the assay on NCI-H23, > 100 µM (inactive). Further, the GI50 in the assay with RPMI-8226, with SF-268, with SF-539, with SK-MEL-2, in the assay with SW-620 and in the assay on U-251 was > 100 µM (inactive) in each case. Moreover, the GI50 in the assay on UACC-257, in the assay on UACC-62 and with UO-31 was > 100 µM (inactive) each time.

On to `COc1ccc(COC2CC(OC)OC(C)C2OC(=O)c2ccccc2)cc1` (stereo not given), for which the GI50 in the assay on ACHN is 24.3 µM (inactive); in the assay with EKVX it was 70.1 µM (inactive); in the assay on HCT-15 it was 17.8 µM; in the assay with MOLT-4, 15.6 µM (inactive); with Malme-3M, 29 µM (inactive); in the assay with NCI-H23, 28.4 µM (inactive). The GI50 in the assay on RPMI-8226 is 18.5 µM (inactive); with SF-268, 39.8 µM (inactive); in the assay with SF-539 it was 54.1 µM (inactive); in the assay with SK-MEL-2, 54 µM (inactive); with SW-620 it was 46.1 µM (inactive); in the assay with U-251 it was 35.5 µM (inactive). The GI50 was 40.1 µM (inactive) in the assay with UACC-257, 32.9 µM (inactive) in the assay on UACC-62 and 22.7 µM (inactive) in the assay on UO-31.

On to `O=C(c1ccccc1)n1cc(/C=C/[N+](=O)[O-])c2ccccc21`, for which the GI50 with ACHN is > 100 µM (inactive); in the assay on EKVX, > 100 µM (inactive); in the assay with HCT-15 it was 19.5 µM; with MOLT-4 it was 17.2 µM (inactive); with Malme-3M, 32.2 µM (inactive); in the assay on NCI-H23, 20.1 µM (inactive). For the same molecule, the GI50 in the assay on RPMI-8226 is 15.7 µM (inactive); in the assay with SF-268, 23.1 µM (inactive); in the assay with SF-539, 21.4 µM (inactive); with SK-MEL-2, 19.9 µM (inactive); in the assay on SW-620, 19.6 µM (inactive); with U-251 it was 18.5 µM (inactive). For the same molecule, the GI50 in the assay on UACC-257 is 21.2 µM (inactive); with UACC-62, 20.1 µM (inactive); in the assay on UO-31, 20.1 µM (inactive).

Regarding `NNC(=S)N/N=C(/C(=O)Nc1ccc([N+](=O)[O-])cc1)c1nc2ccc([N+](=O)[O-])cc2nc1O`, the GI50 was 95.3 µM (inactive) in the assay on ACHN; > 100 µM (inactive) with EKVX; 74.6 µM in the assay on HCT-15; > 100 µM (inactive) with MOLT-4; > 100 µM (inactive) with Malme-3M; > 100 µM (inactive) in the assay on NCI-H23. For the same molecule, the GI50 with RPMI-8226, with SF-268, in the assay on SF-539, in the assay with SK-MEL-2, in the assay on SW-620 and with U-251 was > 100 µM (inactive) in each case. Moreover, the GI50 in the assay with UACC-257, in the assay with UACC-62 and in the assay with UO-31 was > 100 µM (inactive) throughout.

For `O=C(CC(c1ccccc1)C(C(=O)c1ccncc1)C(CC(=O)c1ccncc1)c1ccccc1)c1ccncc1` (stereo not given), the GI50 in the assay on ACHN was 70 µM (inactive); in the assay with EKVX, 34.6 µM (inactive); with HCT-15, over 100 µM; in the assay on Hs-578T it was 30 µM (inactive); with MOLT-4 it was > 100 µM (inactive); in the assay on Malme-3M it was > 100 µM (inactive). Further, the GI50 in the assay on NCI-H23 was 35 µM (inactive); with PC-3, 46.2 µM (inactive); in the assay on RPMI-8226, > 100 µM (inactive); in the assay with SF-268, 32.4 µM (inactive); with SK-MEL-2 it was 78.7 µM (inactive); in the assay on SW-620, > 100 µM (inactive). Also, the GI50 in the assay on T47D was 29.4 µM (inactive); with U-251, 42.8 µM (inactive); with UACC-257, > 100 µM (inactive); in the assay on UACC-62 it was 86.1 µM (inactive); in the assay on UO-31 it was > 100 µM (inactive).

As for `O=C(O)CCCCCO`, the GI50 with ACHN is > 100 µM (inactive); with EKVX it was > 100 µM (inactive); with HCT-15, over 100 µM; in the assay with MOLT-4 it was > 100 µM (inactive); in the assay with Malme-3M it was > 100 µM (inactive); in the assay with NCI-H23, > 100 µM (inactive). Further, the GI50 in the assay with RPMI-8226, in the assay with SF-268, with SF-539, in the assay on SK-MEL-2, in the assay with SW-620 and in the assay on U-251 was > 100 µM (inactive) in each case. Besides, the GI50 with UACC-257, in the assay with UACC-62 and in the assay with UO-31 was > 100 µM (inactive) each time.

As for `COc1ccc(NC(=O)/C(=N/O)C(C)=O)cc1`, the GI50 in the assay with ACHN was > 100 µM (inactive); with EKVX, > 100 µM (inactive); in the assay on HCT-15, 17.5 µM; with MOLT-4, > 100 µM (inactive); with Malme-3M, > 100 µM (inactive); with NCI-H23, > 100 µM (inactive). Further, the GI50 is > 100 µM (inactive) in the assay with RPMI-8226; > 100 µM (inactive) in the assay with SF-268; > 100 µM (inactive) with SF-539; > 100 µM (inactive) with SK-MEL-2; 15.8 µM (inactive) in the assay with SW-620; > 100 µM (inactive) in the assay on U-251. Also, the GI50 with UACC-257, with UACC-62 and in the assay on UO-31 was > 100 µM (inactive) each time.

On to `CC(=O)C1C(=O)C(=O)N(c2ccccc2C(C)C)C1=O` (stereo not given), for which the GI50 is > 100 µM (inactive) in the assay with ACHN; > 100 µM (inactive) in the assay with EKVX; over 100 µM in the assay on HCT-15; > 100 µM (inactive) in the assay on MOLT-4; > 100 µM (inactive) with Malme-3M; > 100 µM (inactive) with NCI-H23. The GI50 in the assay with RPMI-8226, in the assay on SF-268, in the assay on SF-539, in the assay on SK-MEL-2, with SW-620 and in the assay on U-251 was > 100 µM (inactive) throughout. Besides, the GI50 with UACC-257, in the assay with UACC-62 and with UO-31 was > 100 µM (inactive) in each case.

Regarding `COc1ccc(O)cc1` [MEQUINOL], the GI50 with ACHN was 31.3 µM (inactive); in the assay on EKVX, > 100 µM (inactive); in the assay on HCT-15, 24.5 µM; in the assay with MOLT-4 it was 74.3 µM (inactive); in the assay on Malme-3M it was 77.6 µM (inactive); with NCI-H23, > 100 µM (inactive). The GI50 in the assay with RPMI-8226 is > 100 µM (inactive); with SF-268, 55 µM (inactive); with SF-539 it was 47.4 µM (inactive); in the assay with SK-MEL-2, > 100 µM (inactive); in the assay with SW-620, > 100 µM (inactive); in the assay on U-251, > 100 µM (inactive). In addition, the GI50 with UACC-257 is > 100 µM (inactive); in the assay with UACC-62, 24.8 µM (inactive); with UO-31, 57.4 µM (inactive).

Regarding `N#C/N=C(/N)NCN/C(N)=N\C#N`, the GI50 in the assay on ACHN is > 100 µM (inactive); in the assay on EKVX, > 100 µM (inactive); with HCT-15 it was 22.3 µM; in the assay with MOLT-4, > 100 µM (inactive); with Malme-3M, > 100 µM (inactive); with NCI-H23, > 100 µM (inactive). The GI50 is > 100 µM (inactive) in the assay on RPMI-8226; > 100 µM (inactive) in the assay on SF-268; > 100 µM (inactive) in the assay with SF-539; > 100 µM (inactive) with SK-MEL-2; 17.4 µM (inactive) in the assay on SW-620; > 100 µM (inactive) in the assay on U-251. Also, the GI50 in the assay with UACC-257, in the assay with UACC-62 and with UO-31 was > 100 µM (inactive) in each case.
